# Structures can show the parent of a compound that is named as a salt. Where two headings read alike, the source gives them in different places.
# Key:
# [1] = target: T1, SARS-CoV-2 PLpro (nsp3 1564–1878) (Severe acute respiratory syndrome coronavirus 2, UniProt P0DTD1); assay: biochemical; design: FRET-quenched peptide (Pro3) cleavage by PLpro, 10 min pre-incubation, slope over 20 min, normalised to no-compound control; conditions: read-out: % of control remaining
# Experimental: The plates were organized with columns 3–22 containing the compounds; the remaining columns were used for reaction controls including substrate only and substrate with enzyme but no compound (Figure 3Aii). The PLpro enzyme was pre-incubated with the compounds for 10 min, and then the reaction was initiated by the addition of substrate. […] We incubated the inhibitors with PLpro before the enzymatic reaction so that the slow-binding inhibitors will not be missed out [21]. […] Fluorescence was read on a Spark multimode microplate reader (Tecan) with an excitation wavelength at 330 nm and emission wavelength at 420 nm. […] An amount of 5 µl of the enzyme was pre-incubated with compounds for 10 min before the addition of 15 µl substrate. Fluorescence was monitored at 2 min for 20 min with 3 min intervals giving a total of seven readings.
# [2] = target: T1, SARS-CoV-2 PLpro (nsp3 1564–1878); assay: biochemical; design: FRET-quenched peptide (Pro3) cleavage by PLpro, 10 min pre-incubation, slope over 20 min, normalised to no-compound control; conditions: read-out: % of control remaining; remark: listed apart in the source
compound,measurement,setting,value
CN[C@@H](C)C(=O)N[C@H]1CCCC[C@H]2CC[C@@H](C(=O)N[C@@H](c3ccccc3)c3cn(CCCCc4ccc(CCCCn5cc([C@@H](NC(=O)[C@@H]6CC[C@@H]7CCCC[C@H](NC(=O)[C@H](C)NC)C(=O)N76)c6ccccc6)nn5)cc4)nn3)N2C1=O [SM-164 Hydrochloride],remaining activity at 1.25 µM,"[1]; Well no.=7030, low concentration screen",105%
same,remaining activity at 1.25 µM,"[1]; Well no.=8556, low concentration screen",104%
same,remaining activity at 3.75 µM,"[2]; Well no.=7030, high concentration screen",102%
same,remaining activity at 3.75 µM,"[2]; Well no.=8556, high concentration screen",99.5%
O=C(Nc1ncc([N+](=O)[O-])s1)c1ccc([N+](=O)[O-])c(Cl)c1 [SM-7368],remaining activity at 1.25 µM,"[1]; Well no.=5947, low concentration screen",104%
same,remaining activity at 3.75 µM,"[2]; Well no.=5947, high concentration screen",103%
COc1cc2cc(c1Cl)N(C)C(=O)C[C@H](OC(=O)[C@H](C)N(C)C(=O)CCSC1CC(=O)N(CC3CCC(C(=O)ON4C(=O)CCC4=O)CC3)C1=O)[C@]1(C)O[C@H]1[C@H](C)[C@@H]1C[C@@](O)(NC(=O)O1)[C@H](OC)/C=C/C=C(\C)C2 (stereo partly drawn) [SMCC-DM1],remaining activity at 1.25 µM,"[1]; Well no.=8216, low concentration screen",100%
same,remaining activity at 3.75 µM,"[2]; Well no.=8216, high concentration screen",96.4%
O=C1NC(=O)/C(=C/c2cccc(C(F)(F)F)c2)S1 [SMI-4a],remaining activity at 1.25 µM,"[1]; Well no.=4788, low concentration screen",104%
same,remaining activity at 3.75 µM,"[2]; Well no.=4788, high concentration screen",101%
CCCCc1ccc(NC(C)=O)c(C)c1 [SMIP004],remaining activity at 1.25 µM,"[1]; Well no.=6972, low concentration screen",101%
same,remaining activity at 3.75 µM,"[2]; Well no.=6972, high concentration screen",98.7%
C=CCN1C[C@H](C)N([C@H](c2ccc(C(=O)N(CC)CC)cc2)c2cccc(OC)c2)C[C@H]1C [SNC80],remaining activity at 1.25 µM,"[1]; Well no.=1216, low concentration screen",99.3%
same,remaining activity at 3.75 µM,"[2]; Well no.=1216, high concentration screen",102%
CC(C)(C)c1cnc(CSc2cnc(NC(=O)C3CCNCC3)s2)o1 [SNS-032],remaining activity at 1.25 µM,"[1]; Well no.=2845, low concentration screen",105%
same,remaining activity at 3.75 µM,"[2]; Well no.=2845, high concentration screen",104%
O=C(Nc1cccc(Cl)c1)Nc1ncc(CCNc2ncnc3ccsc23)s1 [SNS-314],remaining activity at 1.25 µM,"[1]; Well no.=2893, low concentration screen",101%
same,remaining activity at 3.75 µM,"[2]; Well no.=2893, high concentration screen",101%
CC1(C)CC(=O)c2c(C(F)(F)F)nn(-c3ccc(C(N)=O)c(N[C@H]4CC[C@H](O)CC4)c3)c2C1 [SNX-2112],remaining activity at 1.25 µM,"[1]; Well no.=4635, low concentration screen",99.3%
same,remaining activity at 3.75 µM,"[2]; Well no.=4635, high concentration screen",95.7%
Oc1c2ccccc2c2c3c(cccc13)N=N2 [SP 600125 - Anthra[1-9-cd]pyrazol-6(2H)-one],remaining activity at 1.25 µM,"[1]; Well no.=2432, low concentration screen",96.1%
same,remaining activity at 3.75 µM,"[2]; Well no.=2432, high concentration screen",105%
COc1cc2cc(c1Cl)N(C)C(=O)C[C@H](OC(=O)[C@H](C)N(C)C(=O)CCC(C)(C)SSCCCC(=O)ON1C(=O)CCC1=O)[C@]1(C)O[C@H]1[C@H](C)[C@@H]1C[C@@](O)(NC(=O)O1)[C@H](OC)/C=C\C=C(\C)C2 [SPDB-DM4],remaining activity at 1.25 µM,"[1]; Well no.=7700, low concentration screen",106%
same,remaining activity at 3.75 µM,"[2]; Well no.=7700, high concentration screen",106%
Nc1ncnc2c1ncn2C1CCCO1 (stereo not drawn) [SQ22536],remaining activity at 1.25 µM,"[1]; Well no.=6236, low concentration screen",103%
same,remaining activity at 1.25 µM,"[1]; Well no.=7958, low concentration screen",92.2%
same,remaining activity at 3.75 µM,"[2]; Well no.=6236, high concentration screen",104%
same,remaining activity at 3.75 µM,"[2]; Well no.=7958, high concentration screen",93.7%
Nc1ncnc2c1ncn2C1CCCO1 (stereo not drawn) [SQ 22536],remaining activity at 1.25 µM,"[1]; Well no.=1517, low concentration screen",98.3%
same,remaining activity at 3.75 µM,"[2]; Well no.=1517, high concentration screen",99.9%
O=C(O)CCC/C=C\C[C@@H]1[C@H](CNNC(=O)Nc2ccccc2)[C@H]2CC[C@@H]1O2 [SQ-29548],remaining activity at 1.25 µM,"[1]; Well no.=4526, low concentration screen",92.8%
same,remaining activity at 3.75 µM,"[2]; Well no.=4526, high concentration screen",94.8%
O=C(Nc1ccc(C(O)(C(F)(F)F)C(F)(F)F)cc1)c1ccccc1Cl [SR0987],remaining activity at 1.25 µM,"[1]; Well no.=8133, low concentration screen",95.1%
same,remaining activity at 3.75 µM,"[2]; Well no.=8133, high concentration screen",99.6%
CC(=O)Nc1nc(C)c(S(=O)(=O)Nc2ccc(C(O)(C(F)(F)F)C(F)(F)F)cc2)s1 [SR1001],remaining activity at 1.25 µM,"[1]; Well no.=8467, low concentration screen",106%
same,remaining activity at 3.75 µM,"[2]; Well no.=5461, high concentration screen",111%
same,remaining activity at 3.75 µM,"[2]; Well no.=8467, high concentration screen",106%
O=C(Nc1ccc(C(O)(C(F)(F)F)C(F)(F)F)cc1)c1ccc(C(F)(F)F)cc1 [SR1078],remaining activity at 1.25 µM,"[1]; Well no.=8503, low concentration screen",107%
same,remaining activity at 3.75 µM,"[2]; Well no.=8503, high concentration screen",105%
O=S(=O)(Nc1ccc(C(O)(C(F)(F)F)C(F)(F)F)cc1)c1cccs1 [SR3335],remaining activity at 1.25 µM,"[1]; Well no.=8457, low concentration screen",110%
same,remaining activity at 3.75 µM,"[2]; Well no.=8457, high concentration screen",107%
CN(C)CCOc1cc(-c2cn[nH]c2)ccc1NC(=O)C1COc2ccccc2O1 (stereo not drawn) [SR3677],remaining activity at 1.25 µM,"[1]; Well no.=2989, low concentration screen",97.2%
same,remaining activity at 3.75 µM,"[2]; Well no.=2989, high concentration screen",98.3%
CC1(C)CCC(C)(C)c2cc(C3(c4ccc(C(=O)O)cc4)OCCO3)ccc21 [SR11237],remaining activity at 1.25 µM,"[1]; Well no.=5768, low concentration screen",96%
same,remaining activity at 3.75 µM,"[2]; Well no.=5768, high concentration screen",90.6%
O=C(O)c1ccccc1Nc1cccc(OCc2ccc3ccccc3n2)c1 [SR 2640],remaining activity at 1.25 µM,"[1]; Well no.=1316, low concentration screen",101%
same,remaining activity at 3.75 µM,"[2]; Well no.=1316, high concentration screen",101%
CCOP(=O)(OCC)C(=Cc1cc(C(C)(C)C)c(O)c(C(C)(C)C)c1)P(=O)(OCC)OCC [SR 12813],remaining activity at 1.25 µM,[1],96.5%
same,remaining activity at 3.75 µM,[2],103%
CC(C)c1cc(C(C)C)c(-c2csc(N(CCN(C)C)Cc3cccnc3)n2)c(C(C)C)c1 [SR 27417],remaining activity at 1.25 µM,"[1]; Well no.=5599, low concentration screen",100%
same,remaining activity at 3.75 µM,"[2]; Well no.=5599, high concentration screen",100%
NC1CCN(c2cccc(Cl)n2)CC1 [SR 57227A],remaining activity at 1.25 µM,"[1]; Well no.=1262, low concentration screen",103%
same,remaining activity at 3.75 µM,"[2]; Well no.=1262, high concentration screen",102%
COc1ccc(-c2ccc(=N)n(CCCC(=O)O)n2)cc1 [SR-95531],remaining activity at 1.25 µM,"[1]; Well no.=1325, low concentration screen",103%
same,remaining activity at 3.75 µM,"[2]; Well no.=1325, high concentration screen",98.9%
O=C(Nc1ccccc1-c1cn2c(CN3CCNCC3)csc2n1)c1cnc2ccccc2n1 [SRT1720],remaining activity at 1.25 µM,"[1]; Well no.=4673, low concentration screen",100%
same,remaining activity at 3.75 µM,"[2]; Well no.=4673, high concentration screen",98.8%
C[C@@H](Nc1cc(NS(=O)(=O)N2CCC2)nc(SCc2cccc(F)c2F)n1)[C@@H](O)CO [SRT3109],remaining activity at 1.25 µM,"[1]; Well no.=8607, low concentration screen",108%
same,remaining activity at 3.75 µM,"[2]; Well no.=8607, high concentration screen",104%
C[C@H](Nc1cc(NS(=O)(=O)N2CCC2)nc(SCc2cccc(F)c2F)n1)[C@@H](O)CO [SRT3190],remaining activity at 1.25 µM,"[1]; Well no.=7438, low concentration screen",104%
same,remaining activity at 1.25 µM,"[1]; Well no.=8507, low concentration screen",98.1%
same,remaining activity at 3.75 µM,"[2]; Well no.=7438, high concentration screen",104%
same,remaining activity at 3.75 µM,"[2]; Well no.=8507, high concentration screen",97.8%
O=c1cc(C(Cl)(Cl)Cl)oc2ccc(Cl)cc12 [ST034307],remaining activity at 1.25 µM,"[1]; Well no.=7185, low concentration screen",103%
same,remaining activity at 3.75 µM,"[2]; Well no.=7185, high concentration screen",95.4%
CCCN(CCN1CCN(c2ccccc2OC)CC1)C1CCc2ncsc2C1 (stereo not drawn) [ST-836 (hydrochloride)],remaining activity at 1.25 µM,"[1]; Well no.=8445, low concentration screen",89.3%
same,remaining activity at 3.75 µM,"[2]; Well no.=8445, high concentration screen",92.2%
CC(C)(C)c1ccc(S(=O)(=O)NCc2ccc(C(=O)Nc3cccnc3)cc2)cc1 [STF-31],remaining activity at 1.25 µM,"[1]; Well no.=6059, low concentration screen",94.9%
same,remaining activity at 3.75 µM,"[2]; Well no.=6059, high concentration screen",94.5%
Cc1cccc(Nc2nc(-c3ccncc3)cs2)c1 [STF-62247],remaining activity at 1.25 µM,"[1]; Well no.=4615, low concentration screen",102%
same,remaining activity at 3.75 µM,"[2]; Well no.=4615, high concentration screen",106%
Cc1ccc(S(=O)(=O)Cc2nc(-c3ccc(C(=O)NCc4cccnc4)cc3)oc2C)cc1 [STF-118804],remaining activity at 1.25 µM,"[1]; Well no.=5552, low concentration screen",90.7%
same,remaining activity at 3.75 µM,"[2]; Well no.=5552, high concentration screen",91.7%
O=C(NCc1ccco1)c1ccc2c(c1)N(Cc1c(F)cccc1Cl)C(=O)CS2 [STING agonist-1],remaining activity at 1.25 µM,"[1]; Well no.=8643, low concentration screen",102%
same,remaining activity at 3.75 µM,"[2]; Well no.=8643, high concentration screen",103%

# — PMC8286840, “Identifying SARS-CoV-2 antiviral compounds by screening for small molecule inhibitors of Nsp3 papain-like protease” (Biochemical Journal, 2021)
